From US20250381276A1, “SMALL MOLECULE CONJUGATED CHARGE-ALTERING RELEASABLE TRANSPORTERS FOR NUCLEIC ACID DELIVERY” (The Board of Trustees of the Leland Stanford Junior …, priority 2022, published 2025)

Test system: peripheral blood lymphocytes
Assay: Lymphocyte depletion assay (peripheral blood T and B cells)
Type: in vivo, BALB/c mice
Settings: single i.v. dose, 24 hours vs baseline; FTY720 12.9 μg, mRNA 7.5 μg/mouse
Procedure: For in vivo administration, CART formulations were prepared adding 18.75 μg of mRNA (18.75 uL of a 1 mg/mL stock) to 205 uL of PBS (pH 5.5) and to this 26.22 uL of CART (from a 2 mmol/L stock in DMSO) were added and mixed for 20 seconds. A total of 100 uL of this formulation was administered i.v. into the tail vein of each mouse, injecting two mice at a time per each treatment group and resulting in a final mRNA dose of 7.5 ug/mouse. CART formulations were injected immediately after mixing (within 20 s).
Blood was drawn from the submandibular vein of the mice immediately before and 24 hours after treatment with Fluc mRNA-CART complexes prepared and administered as above. In both cases approximately 1 mL of venous blood was collected per mouse into FACS tubes pre-filled with 500 μL of Ca^2+-EDTA. […]
One of the potential benefits of functionalizing an mRNA delivery vehicle with a small molecule is to exploit the biological properties of the small molecule for therapeutic purposes. […] Before treatment, mice were bled to measure the baseline levels of circulating T cells (CD3+) and B cells (B220+) calculated through flow cytometry as a percentage of the total peripheral blood lymphocytes. The mice were then bled 24 hours after treatment and the levels of peripheral T and B lymphocytes were measured again (FIG. 5). […]

CCCCCCCCc1ccc(CCC(N)(CO)CO)cc1 [FTY720, fingolimod]
Reduction in the percentage of circulating T cells (CD3+): 84%
